One experiment has as its target T1, AVP-V2 sites (Rattus norvegicus, UniProt Q00788).
T1 construct: male rat liver (AVP-V1 sites) or kidney medulla (AVP-V2 sites); from tissue; host or cells: male rat kidney medulla, crude membranes
Description: [^3 H]AVP binding to crude membrane preparation of male rat kidney medulla (AVP-V2 sites). The protocol: (§1) Nonspecific binding (5-10% of the total binding) was determined using 10 μM unlabeled AVP, and the binding reaction was terminated by filtration as described above for the [^3 H]OT binding assay.

Another experiment addresses T2, uterine OT receptors (Rattus norvegicus, UniProt P70536).
T2 construct: from tissue; host or cells: uterus of DES-treated rats, crude membranes
T2 sequence (P70536 1-388): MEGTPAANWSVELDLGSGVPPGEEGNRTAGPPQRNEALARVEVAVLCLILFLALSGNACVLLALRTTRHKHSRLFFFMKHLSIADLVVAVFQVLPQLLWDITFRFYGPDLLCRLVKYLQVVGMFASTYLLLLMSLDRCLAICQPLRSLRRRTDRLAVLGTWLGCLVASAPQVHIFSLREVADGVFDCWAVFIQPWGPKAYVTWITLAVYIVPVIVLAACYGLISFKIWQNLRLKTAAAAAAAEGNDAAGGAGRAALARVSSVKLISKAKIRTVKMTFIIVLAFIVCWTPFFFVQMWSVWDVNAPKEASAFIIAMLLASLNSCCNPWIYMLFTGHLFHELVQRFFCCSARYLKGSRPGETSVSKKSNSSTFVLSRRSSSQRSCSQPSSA
The experiment in a line: [^3 H]OT binding to uterine OT receptors, crude membrane preparation of uteri from DES-treated rats. The conditions noted are these: for IC50: rat uterus membranes, 1 nM [^3 H]OT, read-out: Receptor Binding Results IC50 (nM) [^3 H]OT; for inhibition at 1 µM: @ 1,000 (nM). Here is the method:
Competition studies were conducted at equilibrium (60 minutes; 22° C.) using 1 nM [^3 H]OT in the following assay buffer: 50 mM Tris-HCl, 5 mM MgCl2, and 0.1% BSA, pH 7.4.

In another experiment the target is T3, AVP-V1 sites (Rattus norvegicus, UniProt P30560).
T3 construct: crude membrane preparation of male rat liver (AVP-V1 sites); from tissue; host or cells: male rat liver, crude membranes
The experiment in a line: [^3 H]AVP binding to crude membrane preparation of male rat liver (AVP-V1 sites). The protocol: as §1

The mark [1] stands for this setting: Receptor Binding Results IC50 (nM) [^3 H]-AVP-V1.
Setting [2] is: rat kidney medulla membranes, 2 nM [^3 H]AVP, read-out: Receptor Binding Results IC50 (nM) [^3 H]-AVP-V2.
Where [3] appears, read: 1 h, read-out: [^3 H]OT: percent inhibition of radioligand at the given concentration.
Where [4] appears, read: Receptor Binding Results IC50 (nM) [^3 H]-AVP-V2.

Read-outs that look alike come from different tables or passages of the source. Numbered stars: 1 amine (or outer) side, 2 acyl side, 3 side chain; on linkers, the order of the positions; unused ones are H or OH. Square brackets hold non-standard residues; d marks the D form. Peptide text beside a SMILES is read from it. * marks the point of attachment. X2 = O=C(OCc1ccccc1)N1CCN([*:1])[C@H](C(=O)[*:2])C1; X10 = O=C(O)CN1CCN([*:1])[C@H](C(=O)[*:2])C1; d2Nal = N[C@H](Cc1ccc2ccccc2c1)C(=O)O; Ethyl(2-morpholino) = C1CN(CC*)CCO1; dNMeY = CN[C@H](Cc1ccc(O)cc1)C(=O)O; X3 = O=C([C@@H]1C=CCCN1[*:1])[*:2]; dNMeF = CN[C@H](Cc1ccccc1)C(=O)O; dOrn = NCCC[C@@H](N)C(=O)O; Pip = O=C(O)[C@@H]1CCCCN1; dPip = O=C(O)[C@H]1CCCCN1; ClZ = O=C(OCc1ccccc1Cl)*; Cbz = O=C(OCc1ccccc1)*; Boc = CC(C)(C)OC(=O)*

T3 sequence (P30560 whole entry): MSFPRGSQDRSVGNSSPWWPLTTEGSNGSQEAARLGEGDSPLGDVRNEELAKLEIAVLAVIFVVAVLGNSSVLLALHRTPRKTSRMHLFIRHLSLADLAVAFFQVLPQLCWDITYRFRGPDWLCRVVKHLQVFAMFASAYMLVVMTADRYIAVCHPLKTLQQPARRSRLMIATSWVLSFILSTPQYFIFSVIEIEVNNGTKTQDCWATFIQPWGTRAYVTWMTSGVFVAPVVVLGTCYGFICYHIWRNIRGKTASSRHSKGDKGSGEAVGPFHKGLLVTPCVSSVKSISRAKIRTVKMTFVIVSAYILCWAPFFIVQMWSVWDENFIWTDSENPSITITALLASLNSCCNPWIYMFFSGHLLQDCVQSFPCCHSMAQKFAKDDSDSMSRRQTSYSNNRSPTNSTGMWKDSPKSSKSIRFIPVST
T1 sequence (Q00788 whole entry): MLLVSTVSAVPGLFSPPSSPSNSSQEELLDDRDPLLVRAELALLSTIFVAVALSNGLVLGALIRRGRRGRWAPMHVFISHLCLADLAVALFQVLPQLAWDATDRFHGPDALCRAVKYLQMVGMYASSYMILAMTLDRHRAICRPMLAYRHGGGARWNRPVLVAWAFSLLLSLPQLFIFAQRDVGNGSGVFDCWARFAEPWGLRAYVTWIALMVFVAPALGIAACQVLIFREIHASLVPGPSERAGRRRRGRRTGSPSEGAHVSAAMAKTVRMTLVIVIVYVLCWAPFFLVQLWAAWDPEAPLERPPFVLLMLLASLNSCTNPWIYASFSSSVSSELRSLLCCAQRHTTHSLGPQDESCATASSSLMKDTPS

For the compound `CC[C@H](C)[C@@H]1NC(=O)[C@@H](Cc2c[nH]c3ccccc23)NC(=O)[C@@H]2CCCN2C(=O)[C@@H](Cc2ccccc2)N(C)C(=O)[C@@H]2CN(CC(=O)O)CCN2C(=O)[C@H]2CCCCN2C1=O` [Example 181, c-[D-Tryptophanyl-L-isoleucinyl-D-pipecolyl-L-piperazin-2-yl(4-carboxymethyl)-D-(N^α -Me)phenylalanyl-L-prolyl]] (cyclo(I[dPip][X10][dNMeF]P[dW])), on AVP-V2 sites (0.5 h, @ 10,000 (nM), read-out: [^3 H]-AVP-V2: percent inhibition of radioligand at the given concentration), the inhibition at 10 µM worked out at 73%. Moreover, the values for the IC50 on uterine OT receptors and on AVP-V1 sites (setting [1]) were 100 nM and above 10000 nM, respectively.
Regarding `CC[C@H](C)[C@@H]1NC(=O)[C@@H](Cc2ccccc2)NC(=O)[C@@H]2CCCN2C(=O)[C@@H](CCCCNC(=O)OCc2ccccc2Cl)NC(=O)[C@@H]2CCCCN2C(=O)[C@H]2CCCCN2C1=O` [Example 26, Cyclo[D-phenylalanyl-L-isoleucyl-D-pipecolyl-L-pipecolyl-D-(2-chlorocarbobenzyloxy)-lysyl-L-prolyl]] (cyclo(I[dPip][Pip][dK](ClZ)P[dF])), the IC50 at AVP-V2 sites (setting [2]) and at AVP-V1 sites (setting [1]) was 10000 nM each time. On uterine OT receptors (setting [3]), the inhibition at 1 µM is 86%.
As to `CC[C@H](C)[C@@H]1NC(=O)[C@@H](C)NC(=O)[C@@H]2CCCN2C(=O)[C@@H](Cc2ccccc2)NC(=O)[C@@H]2CCCCN2C(=O)[C@H]2CCCCN2C1=O` [Example 2, Cylco[D-alanyl-L-isoleucyl-D-pipecolyl-L-pipecolyl-D-phenylalanyl-L-prolyl]] (cyclo(I[dPip][Pip][dF]P[dA])), the IC50 at AVP-V2 sites (setting [2]), at uterine OT receptors and on AVP-V1 sites (setting [1]) was above 10000 nM throughout.
For the compound `CC[C@H](C)[C@@H]1NC(=O)[C@@H](Cc2c[nH]c3ccccc23)NC(=O)[C@@H]2CCCN2C(=O)[C@@H](Cc2c[nH]cn2)NC(=O)[C@H](Cc2c[nH]cn2)NC(=O)[C@H]2CCCN2C1=O` [Example 94, c-[D-Tryptophanyl-L-isoleucinyl-D-prolyl-L-histidyl-D-histidyl-L-prolyl]] (cyclo(H[dH]P[dW]I[dP])), the IC50 is above 10000 nM on AVP-V2 sites (setting [2]) and 10000 nM at AVP-V1 sites (setting [1]). Further, the inhibition at 1 µM on uterine OT receptors (setting [3]) is 64%.
As for `CC[C@H](C)[C@@H]1NC(=O)[C@@H](Cc2ccc3ccccc3c2)NC(=O)[C@@H]2CCCN2C(=O)[C@@H](Cc2c[nH]cn2)NC(=O)[C@@H]2CCCCN2C(=O)[C@H]2CCCCN2C1=O` [Example 12, Cyclo[D-2-naphthalalanyl-L-isoleucyl-D-pipecolyl-L-pipecolyl-D-histidyl-L-prolyl]] (cyclo(I[dPip][Pip][dH]P[d2Nal])), the IC50 is above 1000 nM at AVP-V2 sites (setting [4]), 1.2 nM on uterine OT receptors and above 1000 nM at AVP-V1 sites (setting [1]).
Turning to `CC[C@H](C)[C@@H]1NC(=O)[C@@H](Cc2ccccc2)NC(=O)[C@@H]2CCCN2C(=O)[C@@H](Cc2ccc(O)cc2)N(C)C(=O)[C@@H]2CCCCN2C(=O)[C@H]2CCCCN2C1=O` [Example 46, Cyclo[D-phenylalanyl-L-isoleucyl-D-pipecolyl-L-pipecolyl-D-(N^α Methyl)tyrosyl-L-prolyl]] (cyclo(I[dPip][Pip][dNMeY]P[dF])), the values for the IC50 at AVP-V2 sites (setting [4]) and at AVP-V1 sites (setting [1]) were above 1000 nM and 10000 nM, respectively. Further, at uterine OT receptors (1 h, @ 100 (nM), read-out: [^3 H]OT: percent inhibition of radioligand at the given concentration), the inhibition at 0.1 µM is 60%.
As for `CC[C@H](C)[C@@H]1NC(=O)[C@@H](Cc2ccc3ccccc3c2)NC(=O)[C@@H]2CCCN2C(=O)[C@@H](Cc2ccccc2)N(C)C(=O)[C@@H]2CN(C(=O)OCc3ccccc3)CCN2C(=O)[C@H]2CCCCN2C1=O` [Example 169, c-[D-2-Naphthylalanyl-L-isoleucinyl-D-pipecolyl-L-piperazin-2-yl(4-Cbz)-D-(Nα-methyl)-phenylalanyl-L-prolyl]] (cyclo(I[dPip][X2][dNMeF]P[d2Nal])), the values for the IC50 on AVP-V2 sites (setting [2]) and on AVP-V1 sites (setting [1]) were 10000 nM and above 10000 nM, respectively. Besides, the inhibition at 0.01 µM on uterine OT receptors (1 h, @ 10 (nM), read-out: [^3 H]OT: percent inhibition of radioligand at the given concentration) is 74%.
With `CC[C@H](C)[C@@H]1NC(=O)[C@@H](Cc2ccccc2)NC(=O)[C@@H]2CCCN2C(=O)[C@@H](Cc2ccc(OCCN3CCOCC3)cc2)N(C)C(=O)[C@@H]2CCCCN2C(=O)[C@H]2CCCCN2C1=O` [Example 50] (cyclo(I[dPip][Pip][dNMeY](Ethyl(2-morpholino))P[dF])), the IC50 was above 1000 nM at AVP-V2 sites (setting [4]), 310 nM on uterine OT receptors and above 10000 nM on AVP-V1 sites (setting [1]).
In the case of `CC[C@H](C)[C@@H]1NC(=O)[C@@H](Cc2ccccc2)NC(=O)[C@@H]2CCCN2C(=O)[C@@H](CCCNC(=O)OCc2ccccc2)NC(=O)[C@@H]2CCCCN2C(=O)[C@H]2CCCCN2C1=O` [Example 27, Cyclo[D-phenylalanyl-L-isoleucyl-D-pipecolyl-L-pipecolyl-D-(carbobenzyloxy)-ornithyl-L-prolyl]] (cyclo(I[dPip][Pip][dOrn](Cbz)P[dF])), the IC50 on AVP-V2 sites (setting [2]) and on AVP-V1 sites (setting [1]) was 10000 nM in each case. Besides, at uterine OT receptors (setting [3]), the inhibition at 1 µM was 79%.
On to `CC[C@H](C)[C@@H]1NC(=O)[C@@H](Cc2c[nH]cn2)NC(=O)[C@@H]2CCCN2C(=O)[C@@H](Cc2ccccc2)N(C)C(=O)[C@@H]2CCCCN2C(=O)[C@H]2CCCCN2C1=O` [Example 4, Cyclo[D-histidyl-L-isoleucyl-D-pipecolyl-L-pipecolyl-D-(N^α -methyl)-phenylalanyl-L-prolyl]] (cyclo(I[dPip][Pip][dNMeF]P[dH])), for which the IC50 on AVP-V2 sites (setting [2]), on uterine OT receptors and on AVP-V1 sites (setting [1]) was above 10000 nM throughout.
Consider `CC[C@H](C)[C@@H]1NC(=O)[C@@H](Cc2ccccc2)NC(=O)[C@@H]2CCCN2C(=O)[C@@H](Cc2ccccc2)N(C)C(=O)[C@H](CO)NC(=O)[C@H]2CCCN2C1=O` [Example 114, c-[D-Phenylalanyl-L-isoleucyl-D-prolyl-L-seryl-N-methyl-D-phenylalanyl-L-prolyl]] (cyclo(I[dP]S[dNMeF]P[dF])), for which the IC50 on AVP-V2 sites (setting [2]) was above 10000 nM; on uterine OT receptors, 675 nM; on AVP-V1 sites (setting [1]) it was above 10000 nM.
As for `CC[C@H](C)[C@@H]1NC(=O)[C@@H](Cc2ccccc2)NC(=O)[C@@H]2CCCN2C(=O)[C@@H](Cc2ccccc2)N(C)C(=O)[C@@H]2C=CCCN2C(=O)[C@H]2CCCCN2C1=O` [Example 23, Cyclo[D-phenylanyl-L-isoleucyl-D-pipecolyl-L-(3,4-dehydro)-pipecolyl-D-(N^α methyl)phenylalanyl-L-prolyl]] (cyclo(I[dPip][X3][dNMeF]P[dF])), the values for the IC50 at AVP-V2 sites (setting [2]), on uterine OT receptors and at AVP-V1 sites (setting [1]) were above 10000 nM, 625 nM and above 10000 nM, respectively.
Take `C[C@@H]1NC(=O)[C@@H](Cc2ccccc2)NC(=O)[C@@H]2CCCN2C(=O)[C@@H](Cc2ccccc2)N(C)C(=O)[C@@H]2CCCCN2C(=O)[C@H]2CCCCN2C1=O` [Example 9, Cyclo[D-phenylalanyl-L-alanyl-D-pipecolyl-L-pipecolyl-D-(N^α methyl)phenylalanyl-L-prolyl]] (cyclo(A[dPip][Pip][dNMeF]P[dF])): the 50% inhibitory concentration (IC50) at AVP-V2 sites (setting [2]), at uterine OT receptors and at AVP-V1 sites (setting [1]) was above 10000 nM each time.
`CC[C@H](C)[C@@H]1NC(=O)[C@@H](Cc2ccc3ccccc3c2)NC(=O)[C@@H]2CCCN2C(=O)[C@@H](Cc2ccccc2)N(C)C(=O)[C@H](CCCCN)NC(=O)[C@H]2CCCCN2C1=O` [Example 141, C-[D-2-Napthylalanyl-L-isoleucyl-D-pipecolyl-L-lysyl-D-(N-methyl)phenylalanyl-L-prolyl]] (cyclo([d2Nal]I[dPip]K[dNMeF]P)): the “[^3 H]-AVP-V2: percent inhibition of radioligand at the given concentration” value on AVP-V2 sites (@ 1,000 (nM)) came out at 78%. Also, at uterine OT receptors, the IC50 was determined as 45 nM. The “[^3 H]-AVP-V1: percent inhibition of radioligand at the given concentration” value at AVP-V1 sites was determined as 48%.
For `CC[C@H](C)[C@@H]1NC(=O)[C@@H](Cc2ccc(O)cc2)NC(=O)[C@@H]2CCCN2C(=O)[C@@H](Cc2ccccc2)N(C)C(=O)[C@H](CCCCNC(=O)OC(C)(C)C)NC(=O)[C@H]2CCCCN2C1=O` [Example 148, C-[D-Tyrosyl-L-isoleucyl-D-pipecolyl-L-(N-t-butyloxycarbonyl)lysyl-D-(N-methyl)phenylalanyl)-L-prolyl] (cyclo(I[dPip]K(Boc)[dNMeF]P[dY])), the IC50 at AVP-V2 sites (setting [2]) and on AVP-V1 sites (setting [1]) was above 10000 nM throughout. Besides, the inhibition at 1 µM at uterine OT receptors (setting [3]) stood at 50%.
On to `CC[C@H](C)[C@@H]1NC(=O)[C@@H](Cc2ccccc2)NC(=O)[C@@H]2CCCN2C(=O)[C@@H](Cc2cnc[nH]2)NC(=O)[C@@H]2CCCCN2C(=O)[C@H]2CCCCN2C1=O` [Example 3] (cyclo(I[dPip][Pip][dH]P[dF])), for which the IC50 was determined as 19000 nM at AVP-V2 sites (setting [2]), 88 nM at uterine OT receptors and 7300 nM on AVP-V1 sites (read-out: Receptor Binding Results IC50 (nM) [^3 H]-AVP-V1).

A word on the IC50: it is the concentration at which inhibition is half-maximal.

The values are drawn from patent US5225528A, “Cyclic hexapeptide oxytocin antagonists” (priority 1990, dated 1993).
